Reference: patent US20250296953A1, “3,4-THIAZOLO-STEROIDS AND METHODS OF MAKING AND USING THE SAME” (Arkansas State University - Jonesboro, priority 2018, published 2025)
Where two headings read alike, the source gives them in different places.

Experiments:
NCI-H522 (NSCLC) = assay: NCI 60 one dose screen; format: cell-based, human; details: Non-small Cell Lung Cancer
RPMI-8226 = assay: NCI 60 five dose screen; details: for GI50 / CC50: Homo sapiens; for GI50: RPMI-8226; for CC50: RPMI-8226, read-out: LC50
glioblastoma (SF-295) = assay: NCI 60 five dose screen; details: for CC50: SF-295, read-out: LC50; for TGI: SF-295 (CNS Cancer), five dose
HCT-15 (Colon Cancer) = assay: NCI 60 one dose screen; format: cell-based, human
gliosarcoma (SF-539) = assay: NCI 60 five dose screen; details: for GI50: SF-539
[1] = tested on: 60 different human tumor cell lines; details: for TGI: five dose
SF-295 = assay: NCI 60 one dose screen; format: cell-based, human; details: one dose; CNS Cancer; SF-295
[2] = A549/ATCC (Non-small Cell Lung Cancer)
[3] = EKVX (Non-small Cell Lung Cancer)
[4] = NCI-H322M (Non-small Cell Lung Cancer)

C[C@]12CCc3sc(Nc4cccc(O)c4)nc3C1=CC[C@@H]1[C@@H]2CC[C@]2(C)C(=O)CC[C@@H]12 [IIa.17, (1S,2R,13R,14S,18S)-7-(3-hydroxyanilino)-2,18-dimethyl-6-thia-8-azapentacyclo[11.7.0.02,10.05,9.014,18]icosa-5(9),7,10-trien-17-one]
Growth Percent (NCI-H522 (NSCLC)): −56.41%
GI50 (RPMI-8226): 2.73 µM
CC50 (RPMI-8226): > 100 µM
TGI (RPMI-8226; RPMI-8226 (Leukemia), five dose): 7.44E−6
GI50 (glioblastoma (SF-295); Homo sapiens, SF-295): 8.98 µM
CC50 (glioblastoma (SF-295); Homo sapiens): > 100 µM
TGI (glioblastoma (SF-295)): >1.00E−4
Growth Percent (HCT-15 (Colon Cancer)): −47.90%
GI50 (gliosarcoma (SF-539); Homo sapiens): 3.04 µM
CC50 (gliosarcoma (SF-539); Homo sapiens, SF-539, read-out: LC50): 79.9 µM
TGI (gliosarcoma (SF-539); SF-539 (CNS Cancer), five dose): 1.33E−5
LC50 [1]: >l.00E−4
TGI ([1]; 786-0 (Renal Cancer)): 1.31E−5
TGI ([1]; A498 (Renal Cancer)): >1.00E−4
TGI [1, 2]: >1.00E−4
TGI ([1]; ACHN (Renal Cancer)): 2.95E−5
TGI ([1]; CAKI-1 (Renal Cancer)): 3.02E−5
TGI ([1]; CCRF-CEM (Leukemia)): >1.00E−4
TGI ([1]; COLO 205 (Colon Cancer)): 3.74E−5
TGI ([1]; DU-145 (Prostate Cancer)): 4.09E−5
TGI [1, 3]: >1.00E−4
TGI ([1]; HCC-2998 (Colon Cancer)): 4.48E−5
TGI ([1]; HCT-15 (Colon Cancer)): 9.71E−6
TGI ([1]; HCT-116 (Colon Cancer)): 4.17E−6
TGI ([1]; HOP-62 (Non-small Cell Lung Cancer)): >1.00E−4
TGI ([1]; HOP-92 (Non-small Cell Lung Cancer)): 6.79E−5
TGI ([1]; HS 578T (Breast Cancer)): >1.00E−4
TGI ([1]; HT29 (Colon Cancer)): 1.76E−5
TGI ([1]; IGROV1 (Ovarian Cancer)): >1.00E−4
TGI ([1]; K-562 (Leukemia)): >1.00E−4
TGI ([1]; KM12 (Colon Cancer)): 2.94E−5
TGI ([1]; LOX IMVI (Melanoma)): 1.08E−5
TGI ([1]; M14 (Melanoma)): 5.09E−5
TGI ([1]; MALME-3M (Melanoma)): >1.00E−4
TGI ([1]; MCF7 (Breast Cancer)): 3.28E−5
TGI ([1]; MDA-MB-231/ATCC (Breast Cancer)): >1.00E−4
TGI ([1]; MDA-MB-435 (Melanoma)): >1.00E−4
TGI ([1]; MDA-MB-468 (Breast Cancer)): 1.46E−5
TGI ([1]; MOLT-4 (Leukemia)): >1.00E−4
TGI ([1]; NCI-H23 (Non-small Cell Lung Cancer)): >1.00E−4
TGI ([1]; NCI-H226 (Non-small Cell Lung Cancer)): 4.50E−5
TGI [1, 4]: >1.00E−4
TGI ([1]; NCI-H460 (Non-small Cell Lung Cancer)): 2.79E−5
TGI ([1]; NCI-H522 (Non-small Cell Lung Cancer)): 2.36E−5
TGI ([1]; NCI/ADR-RES (Ovarian Cancer)): >1.00E−4
TGI ([1]; OVCAR-3 (Ovarian Cancer)): 5.08E−5
TGI ([1]; OVCAR-4 (Ovarian Cancer)): >1.00E−4
TGI ([1]; OVCAR-5 (Ovarian Cancer)): >1.00E−4
TGI ([1]; OVCAR-8 (Ovarian Cancer)): >1.00E−4
TGI ([1]; PC-3 (Prostate Cancer)): 6.37E−5
TGI ([1]; RXF 393 (Renal Cancer)): 1.42E−5
TGI ([1]; SF-268 (CNS Cancer)): 7.00E−5
TGI ([1]; SK-MEL-2 (Melanoma)): 6.08E−5
TGI ([1]; SK-MEL-5 (Melanoma)): 2.60E−5
TGI ([1]; SK-MEL-28 (Melanoma)): >1.00E−4
TGI ([1]; SK-OV-3 (Ovarian Cancer)): >1.00E−4
TGI ([1]; SN12C (Renal Cancer)): 2.53E−5
TGI ([1]; SNB-19 (CNS Cancer)): >1.00E−4
TGI ([1]; SNB-75 (CNS Cancer)): 7.25E−5
TGI ([1]; SW-620 (Colon Cancer)): 1.56E−5
TGI ([1]; T-47D (Breast Cancer)): >1.00E−4
TGI ([1]; TK-10 (Renal Cancer)): 5.48E−5
TGI ([1]; U251 (CNS Cancer)): 1.93E−5
TGI ([1]; UACC-62 (Melanoma)): 2.96E−4
TGI ([1]; UACC-257 (Melanoma)): 9.45E−5
TGI ([1]; UO-31 (Renal Cancer)): 1.94E−5
Growth Percent (SF-295): −47.70%

C[C@]12CCc3sc(Nc4ccc(F)cc4F)nc3C1=CC[C@@H]1[C@@H]2CC[C@]2(C)C(=O)CC[C@@H]12 [IIa.10, (1S,2R,13R,14S,18S)-7-(2,4-difluoroanilino)-2,18-dimethyl-6-thia-8-azapentacyclo[11.7.0.02,10.05,9.014,18]icosa-5(9),7,10-trien-17-one]
Growth Percent (NCI-H522 (NSCLC)): 42.56%
GI50 (RPMI-8226): 1.88 µM
CC50 (RPMI-8226): > 100 µM
CC50 (glioblastoma (SF-295); Homo sapiens): > 100 µM
TGI (glioblastoma (SF-295)): >1.00E−4
Growth Percent (HCT-15 (Colon Cancer)): 7.76%
GI50 (gliosarcoma (SF-539); Homo sapiens): 1.63 µM
TGI ([1]; A498 (Renal Cancer)): >1.00E−4
TGI [1, 2]: >1.00E−4
TGI ([1]; BT-549 (Breast Cancer)): >1.00E−4
TGI [1, 3]: >1.00E−4
TGI ([1]; HS 578T (Breast Cancer)): >1.00E−4
TGI ([1]; K-562 (Leukemia)): >1.00E−4
TGI ([1]; MOLT-4 (Leukemia)): >1.00E−4
TGI [1, 4]: >1.00E−4
TGI ([1]; OVCAR-4 (Ovarian Cancer)): >1.00E−4
TGI ([1]; OVCAR-5 (Ovarian Cancer)): >1.00E−4
TGI ([1]; OVCAR-8 (Ovarian Cancer)): >1.00E−4
TGI ([1]; SK-OV-3 (Ovarian Cancer)): >1.00E−4
TGI ([1]; SNB-19 (CNS Cancer)): >1.00E−4
TGI ([1]; U251 (CNS Cancer)): >1.00E−4
Growth Percent (SF-295): 50.99%
